Measurements taken from PMC8296708, “The pan HDAC inhibitor Givinostat improves muscle function and histological parameters in two Duchenne muscular dystrophy murine models expressing different haplotypes of the LTBP4 gene” (Skeletal Muscle, 2021).

Key:
[1] = system: D2.B10 mice; experiment: Treadmill run to exhaustion test in D2.B10 mice; assay type: in vivo, mouse (D2.B10-Dmd^mdx/J); conditions: for Effect on distance run, significance: Deflazacort, prednisone 1 mg/kg, lower doses of Givinostat
Source text: For the efficacy studies, C57BL/10 J (Stock No: 000665) wild type (wt) and C57BL/10ScSn-Dmd^mdx/J (Stock No: 001801) 7–8-week-old male mice, DBA/2J wt (Stock No: 000671), and D2.B10-Dmd^mdx/J (Stock No: 013141) 6–7-week-old male mice were purchased from The Jackson Laboratories (Bar Harbor, Maine, USA). After 5 days of acclimatization in the animal facility, mice were randomized into different treatment groups based on their BW. C57BL/10J wt mice were assigned to the naive wt group (healthy mice that received no treatment, but were subjected to functional tests), whereas mdx mice were assigned to the following groups (9 mice/group; 4–5 mice/cage): naive mdx (mice that received no treatment, but were subjected to functional tests), vehicle (0.5% methylcellulose, p.o.), and Givinostat (0.1, 0.3, 1, 5, 10, 25, and 37.5 mg/kg, p.o.). DBA/2J mice were assigned to the naive wt group (healthy mice that received no treatment, but were subjected to functional tests), whereas D2.B10 mice were assigned to the following groups (12–13 mice/group; 4–5 mice/gage): vehicle (filtered tap water, p.o.), Givinostat (1, 5, 10, and 37.5 mg/kg, p.o.), prednisone 1 mg/kg, and Deflazacort 1 mg/kg (i.p.).
(§1) In the efficacy studies, Givinostat powder (ITF2357) was suspended in 0.5% methylcellulose (Sigma-Aldrich) and administered p.o. (by gavage) at the doses of 0.1, 0.3, 1, 5, 10, 25, and 37.5 mg/kg qdx5x15weeks (administration volume per mouse: 10 mL/kg) in mdx mice (see Additional Figure 1A). Vehicle-treated mdx mice received 0.5% methylcellulose suspension. Givinostat suspension was stored at + 4 °C, and it was freshly prepared every 7 days. Probably due to the impairment of their tongue and masticatory muscles, the oral gavage procedure turned out to be difficult to perform, and chronic treatment of D2.B10 mice by this route was considered to bear a high risk of damaging the esophagus. For this reason, Givinostat was administered in the drinking water. Givinostat was dissolved in filtered tap water and was administered in drinking water (throughout 24 h) for 105 days at the dose of 1, 5, 10, and 37.5 mg/kg/day, according to a daily estimate of water consumption of 4 ml/mouse/day. Water consumption was weekly monitored throughout the entire duration of the study weighing the bottle of each cage (maximum 4 mice per cage). Prednisone and Deflazacort powder (Sigma-Aldrich) was dissolved in 2% DMSO (Sigma-Aldrich) and diluted in sterile saline on injection days. Both drugs were administered weekly (for 15 weeks) by i.p. injection at the dose of 1 mg/kg in a volume of 10 mL/kg. Givinostat and steroid treatments started on days 7 and 9 of the experimental plan, respectively (see Additional Figure 1B). All mice were monitored daily and tolerability was evaluated on the basis of BW and clinical signs.
Run to exhaustion performance of mdx and D2.B10 mice was evaluated every 14 or 21 days, respectively, using a treadmill apparatus (Ugo Basile SRL, Italy). The exhaustion protocol consisted in an initially horizontal running at 5 m/min for 5 min after which the speed was increased 1 m/min every minute until exhaustion (the procedure was compliant with the standard operating procedures of TREAT–NMD Neuromuscular Network). […]
After taking baseline readings for behavioral assays (FNmax and distance run by the animals), mice were re-randomized based on these two parameters, also considering the previous randomization performed on their BW. […]

[2] = Body weight of D2.B10 mice; assay type: in vivo, mouse (D2.B10-Dmd^mdx/J)
Description: as §1, with “Givinostat and steroid treatments started on days 7 and 9 of the experimental plan, respectively (see Additional Figure 1B).” left out
In both efficacy studies, the effectiveness of treatments was evaluated every week by measuring the forelimb strength by a grip strength meter (Ugo Basile SRL, Italy). BW of mdx (see Additional Figure 2) and D2.B10 mice (see Additional Figure 3) was also measured in order to normalize the absolute grip strength of each mouse with respect to its BW. […] The highest recorded value of maximal normalized strength (FNmax) obtained for each mouse at all the time points (from T0 to T15) was used for further analysis.

[3] = system: mdx mice; experiment: Muscle fibrosis by Sirius Red staining in mdx mice; assay type: in vivo, mouse (C57BL/10ScSn-Dmd^mdx/J)
Source text: Tibialis anterior (TA), gastrocnemius (GAS), DIA, and heart were collected from mice maintained under isoflurane anesthesia and sacrificed by cervical dislocation. These muscles were collected from C57BL/10J wt and mdx (5 mice/group) at the end of treatments and from DBA/2J wt and D2.B10 mice (5 mice/group) at two different time points to be examined by a pathologist (for more details see Additional Table 1). Due to the results obtained by the functional tests, muscles from only some treatment groups were analyzed in both DMD models (see Additional Table 1). All the collected muscles were fixed in 10% buffered formalin solution (Bio-optica, Milan, Italy) at + 4 °C for at least 48 h. After fixation, muscular samples were transversely trimmed, caged, and paraffin embedded overnight with an Automated Vacuum Tissue Processor Floor (ETP, Histo-Line Laboratories) and included in paraffin blocks. Serial transverse cross-sections (4 μm thick) were cut with a microtome (Leica RM 2255), collected onto uncoated glass slides, and stained using a standard protocol for hematoxylin and eosin (Mayer hematoxylin & Aqueous G Eosin 1%, Bio-Optica) and Sirius Red staining (Direct Red 80, Sigma-Aldrich). For the image analysis and quantitation, hematoxylin and eosin- and Sirius Red-stained slides were examined with an Olympus BX51 light microscope. From each sample, 1 to 3 random microphotographs at the magnification of × 4 and × 10 (TA, GAS and heart) or × 20 (DIA) were collected using Image-Pro Plus system. The digital images were processed by a pathologist using ImageJ software (U.S. National Institutes of Health, Bethesda, MD, USA). To quantify CSA and centralized nuclei (%) on hematoxylin and eosin-stained sections, one hundred myofibers were manually measured for each muscle/mouse using a tablet pen (Wacom Intruos) and analyzed by the ImageJ software after a linear calibration of 150 μm. The fibrotic area, corresponding to the area stained in red, was compared to the total area of the tissue section, and the results were expressed as percentage fibrosis. The % of fibrosis of muscles in the different treatment groups was expressed by averaging the three values obtained from each muscle.

| SMILES | Effect on distance run, significance [1] | Body weight vs vehicle-treated mice ([2]; mouse, in vivo) | Reduction of fibrosis in GAS ([3]; 10 and 37.5 mg/kg, T16, vs vehicle) | Effect on fibrosis in TA ([3]; T16, doses 1, 10, 37.5 mg/kg analyzed) | Reduction of fibrosis in DIA ([3]; all 3 analyzed doses (1, 10, 37.5 mg/kg), T16) | Effect on fibrosis in heart ([3]; all 3 doses analyzed, T16, vs vehicle) | Distance run ([1]; Givinostat top dose (37.5 mg/kg), day 105 (vehicle 296 ± 17 m)) [meters] | Time to exhaustion ([1]; highest dose, day 105) | Body weight vs vehicle-treated mice ([2]; D2.B10 mice) |
| --- | --- | --- | --- | --- | --- | --- | --- | --- | --- |
| C[C@]12C=CC(=O)C=C1CC[C@@H]1[C@@H]2C(=O)C[C@@]2(C)[C@H]1CC[C@]2(O)C(=O)CO [prednisone] | not statistically significant | no significant differences |  |  |  |  |  |  |  |
| CCN(CC)Cc1ccc2cc(COC(=O)Nc3ccc(C(=O)NO)cc3)ccc2c1 [Givinostat] | not statistically significant |  | about 30% | observed only at the dose of 37.5 mg/kg | about 40% | the effect was not significant | 473 ± 22 | significantly prolonged the time to exhaustion | no significant differences |
